Assay results reported in ChEMBL document CHEMBL6182828, “Medicinal chemistry-based perspectives on thiophene and its derivatives: exploring structural insights to discover plausible druggable leads” (RSC Med Chem, 2025).
Converted amounts (≈) assume the structure as drawn.

What was measured:
[1] = Half life in po dosed human plasma; format: ADME, organism-based
Beta-secretase 1 = Beta-secretase 1 (Homo sapiens, UniProt P56817); experiment: Inhibition of human recombinant BACE1 expressed in HEK293 cells by FRET assay; format: cell-based
Beta-secretase 1, sequence (P56817 whole entry): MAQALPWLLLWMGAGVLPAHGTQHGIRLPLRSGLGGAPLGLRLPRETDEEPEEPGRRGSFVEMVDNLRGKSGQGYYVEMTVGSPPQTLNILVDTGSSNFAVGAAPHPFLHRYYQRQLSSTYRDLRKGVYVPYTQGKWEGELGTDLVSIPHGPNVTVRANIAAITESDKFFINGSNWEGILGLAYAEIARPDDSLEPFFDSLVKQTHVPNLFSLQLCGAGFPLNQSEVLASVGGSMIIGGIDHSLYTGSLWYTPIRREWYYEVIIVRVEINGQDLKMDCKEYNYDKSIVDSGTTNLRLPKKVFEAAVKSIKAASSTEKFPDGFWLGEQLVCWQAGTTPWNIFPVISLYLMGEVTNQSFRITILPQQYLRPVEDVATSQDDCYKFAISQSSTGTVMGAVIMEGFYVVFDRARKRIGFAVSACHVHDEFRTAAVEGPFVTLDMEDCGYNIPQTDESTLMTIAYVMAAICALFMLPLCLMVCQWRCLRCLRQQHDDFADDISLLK

[2] = Terminal half life in human plasma; format: ADME, cell-free; details: read-out: beta t1/2 (converted)
[3] = Half life in human at 0.7 mg/kg, po; details: in vivo
[4] = Half life in human at 15 mg/kg, po; format: ADME, organism-based; details: in vivo
Escherichia coli = experiment: Antimicrobial activity against Escherichia coli assessed as diameter of zone of inhibition; format: functional
[5] = Inhibition of EGFR2 (unknown origin); design: species or system Homo sapiens
MIA PaCa-2 = experiment: Cytotoxicity against human MIA PaCa-2 cells; format: functional, cell-based
Salmonella paratyphi = experiment: […] activity against Salmonella enterica subsp. enterica serovar Paratyphi A assessed as zone of inhibition at 100 ug/ml by cup-plate agar diffusion method; format: functional; details: read-out: IZ
Staphylococcus aureus [6] = experiment: Antibacterial activity against Staphylococcus aureus assessed as zone of inhibition at 100 ug/ml by cup-plate agar diffusion method; format: functional; details: read-out: IZ
Aspergillus niger = experiment: Antifungal activity against Aspergillus niger assessed as diameter of zone of inhibition at 100 ug/ml by cup-plate agar diffusion method; format: functional; details: read-out: IZ
Bacillus subtilis [7] = experiment: Antibacterial activity against Bacillus subtilis ATCC 6633 assessed as zone of inhibition; format: functional
Staphylococcus aureus [8] = experiment: Antimicrobial activity against Staphylococcus aureus assessed as reduction in cell growth by XTT assay; format: functional, organism-based
Streptococcus pneumoniae [9] = experiment: Antimicrobial activity against Streptococcus pneumoniae assessed as reduction in cell growth by XTT assay; format: functional, organism-based
[10] = Half life in human at 6 mg/kg; format: ADME, organism-based; details: in vivo
MCF7 = experiment: Cytotoxicity against human MCF7 cells assessed as reduction in cell viability; format: functional, cell-based
[11] = Terminal half life in human at 2.5 mg/kg, po; format: ADME, organism-based; details: in vivo, read-out: beta t1/2 (converted)
HepG2 = experiment: Antiproliferative activity against human HepG2 cells assessed as reduction in cell growth measured for 96 hrs by Neutral red uptake assay; format: functional, cell-based; details: HepG2, 96 h
Cholinesterase = Cholinesterase (Homo sapiens, UniProt P06276); experiment: Inhibition of BChE (unknown origin)
Cholinesterase, sequence (P06276 whole entry): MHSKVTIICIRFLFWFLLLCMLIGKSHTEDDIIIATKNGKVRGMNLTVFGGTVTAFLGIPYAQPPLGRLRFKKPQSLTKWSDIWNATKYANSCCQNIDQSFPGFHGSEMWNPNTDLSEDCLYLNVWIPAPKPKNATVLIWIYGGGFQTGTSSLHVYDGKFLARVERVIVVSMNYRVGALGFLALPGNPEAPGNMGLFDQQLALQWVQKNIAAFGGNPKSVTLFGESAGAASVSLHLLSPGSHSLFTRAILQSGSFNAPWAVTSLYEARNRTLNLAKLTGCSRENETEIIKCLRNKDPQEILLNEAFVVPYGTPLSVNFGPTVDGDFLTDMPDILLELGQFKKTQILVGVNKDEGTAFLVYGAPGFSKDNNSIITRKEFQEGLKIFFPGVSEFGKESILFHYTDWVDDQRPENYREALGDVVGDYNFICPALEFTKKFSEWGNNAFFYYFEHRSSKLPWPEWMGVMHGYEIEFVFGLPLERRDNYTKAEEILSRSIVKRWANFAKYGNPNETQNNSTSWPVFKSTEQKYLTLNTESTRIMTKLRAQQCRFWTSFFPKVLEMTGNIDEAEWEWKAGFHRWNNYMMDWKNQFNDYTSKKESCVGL

Acetylcholinesterase [12] = molecular target: T1, Acetylcholinesterase (Homo sapiens, UniProt P22303); experiment: Inhibition of AChE (unknown origin)
T1 sequence (P22303 whole entry): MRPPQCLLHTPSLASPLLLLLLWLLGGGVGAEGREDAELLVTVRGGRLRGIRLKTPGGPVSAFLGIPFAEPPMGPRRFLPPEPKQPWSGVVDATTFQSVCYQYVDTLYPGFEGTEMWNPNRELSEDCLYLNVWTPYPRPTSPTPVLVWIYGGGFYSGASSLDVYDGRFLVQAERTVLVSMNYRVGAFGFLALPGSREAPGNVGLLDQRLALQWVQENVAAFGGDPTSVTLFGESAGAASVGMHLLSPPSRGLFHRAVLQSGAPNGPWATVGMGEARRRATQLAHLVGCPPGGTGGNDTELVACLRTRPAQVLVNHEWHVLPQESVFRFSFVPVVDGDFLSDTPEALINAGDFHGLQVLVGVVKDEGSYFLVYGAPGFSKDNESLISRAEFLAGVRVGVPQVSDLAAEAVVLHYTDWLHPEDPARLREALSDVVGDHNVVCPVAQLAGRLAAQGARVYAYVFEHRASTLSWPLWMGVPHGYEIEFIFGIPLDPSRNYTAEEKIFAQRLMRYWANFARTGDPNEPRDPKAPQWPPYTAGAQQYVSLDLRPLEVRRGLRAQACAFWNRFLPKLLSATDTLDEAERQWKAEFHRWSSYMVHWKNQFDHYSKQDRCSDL

HL-60 = experiment: Cytotoxicity against human HL-60 cells assessed as reduction in cell growth incubated for 24 hrs by MTT assay; format: functional, cell-based; details: HL-60, 24 h
HCT-116 = experiment: Cytotoxicity against human HCT-116 cells assessed as reduction in cell growth incubated for 24 hrs by MTT assay; format: functional, cell-based; details: HCT-116, 24 h
OVCAR-8 = experiment: Cytotoxicity against human OVCAR-8 cells assessed as reduction in cell growth incubated for 24 hrs by MTT assay; format: functional, cell-based; details: OVCAR-8, 24 h
SF-295 = experiment: Cytotoxicity against human SF-295 cells assessed as reduction in cell growth incubated for 24 hrs by MTT assay; format: functional, cell-based; details: SF-295, 24 h
[13] = Half life of compound; format: physicochemical
A549 = experiment: Growth inhibition of human A549 cells by SRB assay; format: functional
Penicillium chrysogenum = experiment: Antifungal activity against Penicillium chrysogenum assessed as diameter of zone of inhibition at 100 ug/ml by cup-plate agar diffusion method; format: functional; details: read-out: IZ
[14] = Elimination half life in human at 0.8 mg/kg, sc; format: ADME, organism-based; details: in vivo, read-out: LambdaZ (converted)
Acetylcholinesterase [15] = molecular target: T1, Acetylcholinesterase; experiment: Inhibition of AChE (unknown origin) using acetylthiocholine iodide as substrate by Ellman's spectrophotometric analysis
clinical = details: human
Streptococcus pneumoniae [16] = experiment: Antimicrobial activity against Streptococcus pneumoniae assessed as diameter of zone of inhibition by agar diffusion method; format: functional
Bacillus subtilis [17] = experiment: Antimicrobial activity against Bacillus subtilis assessed as diameter of zone of inhibition by agar diffusion method; format: functional
[18] = molecular target: Amine oxidase [flavin-containing] B (Homo sapiens, UniProt P27338); experiment: Inhibition of human recombinant MAO-B extracted from baculovirus infected in BTI-TN-5B1-4 insect cells incubated for 20 mins by Amplex Red reagent based fluorescence analysis; format: cell-based
Amine oxidase [flavin-containing] B, sequence (P27338 whole entry): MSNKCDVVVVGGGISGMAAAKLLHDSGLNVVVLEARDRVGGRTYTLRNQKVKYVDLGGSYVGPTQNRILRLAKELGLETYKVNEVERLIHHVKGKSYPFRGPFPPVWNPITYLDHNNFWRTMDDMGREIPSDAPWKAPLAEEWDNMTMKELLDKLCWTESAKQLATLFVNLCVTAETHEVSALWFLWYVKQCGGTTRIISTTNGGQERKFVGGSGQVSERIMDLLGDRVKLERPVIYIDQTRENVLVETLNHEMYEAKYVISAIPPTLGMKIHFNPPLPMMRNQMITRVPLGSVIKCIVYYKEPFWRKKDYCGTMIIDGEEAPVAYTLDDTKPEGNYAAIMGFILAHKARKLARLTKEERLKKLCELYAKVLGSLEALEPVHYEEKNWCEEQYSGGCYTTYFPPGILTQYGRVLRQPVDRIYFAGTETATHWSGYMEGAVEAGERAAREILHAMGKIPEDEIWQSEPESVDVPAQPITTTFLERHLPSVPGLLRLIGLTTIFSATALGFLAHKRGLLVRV

SMMC-7721 = experiment: cells; details: Homo sapiens, SMMC-7721, 72 h
Description: Antiproliferative activity against human SMMC-7721 cells assessed as reduction in cell viability measured for 72 hrs by MTT assay

[19] = Terminal half life in human; format: ADME; details: read-out: beta t1/2 (converted)
Rattus norvegicus [20] = experiment: Anti-inflammatory activity against carrageenan-induced paw edema in Wistar rat assessed as inhibition of paw edema at 20 mg/kg, po by H and E staining based analysis relative to control; format: functional; design: scale not given: the % may be the effect or the level left
Rattus norvegicus [21] = experiment: Anti-inflammatory activity against carrageenan-induced paw edema in Albino rat assessed as inhibition of paw edema at 50 mg/kg, po relative to control; format: functional; design: scale not given: the % may be the effect or the level left

CN1CCC(=C2c3ccccc3CC(=O)c3sccc32)CC1 [KETOTIFEN]
half-life [1]: 3 h

COC(=O)c1cc(C)cc2sc3cccc(OC)c3c12
IC50 (Beta-secretase 1): 600 nM

CCCN(CCc1cccs1)[C@H]1CCc2c(O)cccc2C1 [ROTIGOTINE]
half-life [2]: 7 h

COC(=O)[C@H](c1ccccc1Cl)N1CCc2sccc2C1 [CLOPIDOGREL]
half-life [3]: 6 h

Cc1cc2c(s1)Nc1ccccc1N=C2N1CCN(C)CC1 [OLANZAPINE]
half-life [4]: 21 h

NC(=S)N/N=C(\C=C\c1ccc(Cl)cc1Cl)c1cccs1
inhibition zone (IZ) (Escherichia coli): 15 mm

CN1CCN(CC(=O)Nc2sc3c(c2C#N)CCC(C(C)(C)C)C3)CC1 (configuration not stated)
IC50 [5]: 680 nM | IC50 (MIA PaCa-2): 13400 nM

Cc1cc2ccc(O)cc2n(NC(=O)c2sc3cc(F)ccc3c2N)c1=O
zone of inhibition at 100 µg/mL (Salmonella paratyphi): 22 mm | zone of inhibition at 100 µg/mL (Staphylococcus aureus [6]): 23 mm | zone of inhibition at 100 µg/mL (Aspergillus niger): 26 mm | inhibition zone (IZ) (Bacillus subtilis [7]): 25 mm

CCOC(=O)c1c(Nc2ccccc2)sc(Cc2ccc(-n3cnnn3)cc2)c1N
IC50 (Staphylococcus aureus [8]): 7.62 µg/mL (≈ 18.1 µM) | IC50 (Streptococcus pneumoniae [9]): 9.83 µg/mL (≈ 23.4 µM)

CCN[C@H]1CN(CCCOC)S(=O)(=O)c2sc(S(N)(=O)=O)cc21 [BRINZOLAMIDE]
half-life [10]: 111 h

O=C1S/C(=C\c2cccc(Cl)c2Cl)C(=O)N1Cc1nnc(-c2cccs2)o1
IC50 (MCF7): 4.83 µg/mL (≈ 11 µM)

CCCCc1ncc(/C=C(\Cc2cccs2)C(=O)O)n1Cc1ccc(C(=O)O)cc1 [EPROSARTAN]
half-life [11]: 5 h

COc1ccc(C2=NNC(=O)c3c(sc(C(N)=O)c3C)N2)cc1
IC50 (HepG2): 4.37 µg/mL (≈ 13.2 µM)

O=C(NNC(=S)Nc1ccccc1[N+](=O)[O-])c1sccc1Cl
IC50 (Cholinesterase): 1900 nM | IC50 (Acetylcholinesterase [12]): 400 nM

COc1cccc(/C=N/NC(=O)c2cccs2)c1O
IC50 (HL-60): 820 nM | IC50 (HCT-116): 820 nM | IC50 (OVCAR-8): 820 nM | IC50 (SF-295): 820 nM

CCN[C@H]1C[C@H](C)S(=O)(=O)c2sc(S(N)(=O)=O)cc21 [DORZOLAMIDE]
t1/2 [13]: 4 months

CCOC(=O)c1c(/N=C/c2ccc(Br)cc2)sc2c1CCCC2
GI50 (A549): 8040 nM

NC1=C(C(=O)Nn2c(=O)cc(-c3ccccc3)c3ccc(O)cc32)SCC1
zone of inhibition at 100 µg/mL (Penicillium chrysogenum): 27 mm

NC(N)=NCCC[C@@H](N)C(=O)N[C@@H](CCCN=C(N)N)C(=O)N1CCC[C@H]1C(=O)N1C[C@H](O)C[C@H]1C(=O)NCC(=O)N[C@@H](Cc1cccs1)C(=O)N[C@@H](CO)C(=O)N1Cc2ccccc2C[C@@H]1C(=O)N1[C@H](C(=O)N[C@@H](CCCN=C(N)N)C(=O)O)C[C@@H]2CCCC[C@@H]21 [ICATIBANT]
half-life [14]: 1.4 h

FC(F)(F)c1cccc(-c2cc(-c3cccs3)n(-c3ccc(Br)cc3)n2)c1
IC50 (Acetylcholinesterase [15]): 0.48 nM

Clc1ccccc1CN1CCc2sccc2C1 [TICLOPIDINE]
half-life (clinical): 7.9 h

CCOC(=O)c1c(Nc2ccccc2)sc(C2=CN3NCC=C3N2)c1-c1ccccc1
inhibition zone (IZ) (Streptococcus pneumoniae [16]): 12.3 mm | inhibition zone (IZ) (Bacillus subtilis [17]): 12.7 mm

O=c1oc2cc(O)ccc2cc1-c1cc(Br)cs1
IC50 [18]: 140 nM

O=C(Nc1ccsc1C(=O)N/N=C/c1ccc(F)cc1)c1ccc(Cl)cc1Cl
IC50 (SMMC-7721): 320 nM

O=C(NC[C@H]1CN(c2ccc(N3CCOCC3=O)cc2)C(=O)O1)c1ccc(Cl)s1 [RIVAROXABAN]
half-life [19]: 5 h

CC(=O)c1c(Nc2ccc(C)cc2)sc(-c2nc3ccccc3c(=O)n2-c2ccc(Cl)cc2)c1C
Activity (Rattus norvegicus [20]): 48.94% | Activity (Rattus norvegicus [21]): 58.6%
